According to patent publication US9447136B2, “Semisynthetic derivatives of Nystatin A1” (BLIRT S.A., priority 2012, dated 2016):
Like-named read-outs stand apart in the source and are kept apart here.

Legend:
[1] = system: Human erythrocytes; assay: Hemotoxicity (hemolytic activity)
Description: The hemotoxicity determination were carried out by the serial dilutions method, according to the procedure described earlier (Ślisz, M., et al., E., J Antibiot 57: 669-678 (2004)). Human erythrocytes were suspensed in the solution of saline to obtain a cell density of suspension 2×10^7/ml. Suitable amounts of diluted solutions of compounds were added to the cell suspension in tubes and were incubated at 37° C. for 30 minutes and then centrifuged (1700×g, 10 min, 4° C.). The concentration of hemoglobin in supernatant after centrifugation of erythrocytes suspension were determined by measuring the absorbance at wavelength λ=540 nm (A540). The maximum level of hemolysis was obtained after incubation of cells suspension in the presence of 0.1% Tritone X-100 (control sample). […] From these graphs, the EH50 values were read which are the interpolated concentrations of compound, for which the A540 value is exactly 50% of the A540 value measured for the control sample.

[2] = system: Candida glabrata DSM 11226; assay: Antifungal activity in vitro, serial dilution in RPMI 1640; assay type: cell-based; details: Table 2A; RPMI 1640, pH 7.0
Description: (§1) For the determination of antifungal activity in vitro we used method of serial dilution in buffered medium RPMI 1640, pH 7.0, in a 96-wells microplates, according to the standard procedure (National Committee for Clinical Laboratory Standards. Reference method for broth dilution antifungal susceptibility testing of yeast, approved standard, 2nd ed. M27-A2 vol. 22 Wayne, Pa., 2002). The optical density of cells suspension was measured using a microplates reader (Victor^3, Perkin-Elmer) at the wavelength λ=531 nm (A531). On the basis of obtained results the diagrams of relation between A531 values and concentration of examined compound were made. From these graphs, the IC50 values were read, which were the interpolated concentrations of a tested compound, at which the A531 value was exactly 50% of the A531 value for the control sample. Moreover, MIC values, that are the lowest concentration of tested compound at which the A531 value were at most 20% of the A531 value measured for the control sample.

[3] = system: Candida tropicalis KKP 334; assay: as above; assay type: cell-based; details: Table 2A; RPMI 1640, pH 7.0
Description: as §1

[4] = system: Saccharomyces cerevisiae ATCC 9763; assay: as above; assay type: cell-based; details: Table 2A; RPMI 1640, pH 7.0; A531 at most 20% of control
Description: as §1

[5] = system: Candida albicans ATCC 10231; assay: as above; assay type: cell-based; details: Table 2A, RPMI 1640, pH 7.0; for Antifungal activity Candida albicans ATCC 10231 IC50: A531 50% of control; for Antifungal activity Candida albicans ATCC 10231 MIC: A531 at most 20% of control
Description: as §1

[6] = system: Candida krusei DSM 6128; assay: as above; assay type: cell-based; details: Table 2A; RPMI 1640, pH 7.0
Description: as §1

[7] = human erythrocytes, concentration causing 10% of hemolysis

Molecule | % of hemolysis at the concentration 300 μg ml^−1 [1] [%] | EH10 [1] [µg/mL] | Antifungal activity Candida glabrata DSM 11226 MIC [2] [µg/mL] | Antifungal activity Candida tropicalis KKP 334 MIC [3] [µg/mL] | Antifungal activity Saccharomyces cerevisiae ATCC 9763 MIC [4] [µg/mL] | Antifungal activity Candida albicans ATCC 10231 IC50 [5] [µg/mL] | Antifungal activity Candida albicans ATCC 10231 MIC [5] [µg/mL] | Antifungal activity Candida krusei DSM 6128 MIC [6] [µg/mL] | Hemotoxicity BEH50 ([1]; human erythrocytes, 37° C., 30 minutes, concentration causing 50% hemolysis, maximum concentration 300 μg/ml) [µg/mL] | % of hemolysis at the concentration 300 μg ml^−1 ([1]; human erythrocytes, 300 μg ml^−1) [%] | EH10 [1, 7] [µg/mL]
CC1C=CC=CCCC=CC=CC=CC=CC(OC2OC(C)C(O)C(NC(=O)C(N)COC(C)(C)C)C2O)CC2OC(O)(CC(O)CC(O)C(O)CCC(O)CC(O)CC(=O)OC(C)C(C)C1O)CC(O)C2C(=O)O [Compound N36, N-L-(O-tert-butyl)serylnystatin A1] | 8.24 | >300 |  |  |  |  |  |  |  |  | 
CC1OC(O[C@H]2/C=C/C=C/C=C/C=C/CC/C=C/C=C/[C@H](C)[C@@H](O)[C@@H](C)[C@H](C)OC(=O)C[C@H](O)C[C@H](O)C[C@H](O)CC[C@@H](O)[C@H](O)CC3(O)C[C@H](O)[C@@H](C(=O)O)[C@H](C2)O3)C(O)C(NC2CC(=O)N(Cc3ccccc3)C2=O)C1O (stereo partly shown) [Compound N1, N—(N′-benzylsuccinimidyl)nystatin A1] |  |  | 16 | 8 | 8 | 5.36 | 8 | 32 |  |  | 
N—(N′-cyclohexylsuccinimidyl)nystatin A1 [Compound N5] |  |  | 16 | 8 | 8 | 5.77 | 8 | 16 |  |  | 
Cc1cc(C)c(N2C(=O)CC(N[C@@H]3[C@H](O)[C@H](O[C@H]4/C=C/C=C/C=C/C=C/CC/C=C/C=C/[C@H](C)[C@@H](O)[C@@H](C)[C@H](C)OC(=O)C[C@H](O)C[C@H](O)CC[C@@H](O)[C@H](O)C[C@H](O)C[C@]5(O)C[C@H](O)[C@@H](C(=O)O)[C@H](C4)O5)O[C@H](C)[C@H]3O)C2=O)c(C)c1 (stereo partly shown) [Compound N3, N—(N′-2,4,6-trimethylphenylsuccinimidyl)nystatin A1] |  |  | 32 | 16 | 8 | 11.76 | 16 |  |  |  | 
Cc1cccc(C)c1N1C(=O)CC(NC2C(O)C(C)OC(O[C@H]3/C=C/C=C/C=C/C=C/CC/C=C/C=C/[C@H](C)[C@@H](O)[C@@H](C)[C@H](C)OC(=O)C[C@H](O)C[C@H](O)C[C@H](O)CC[C@@H](O)[C@H](O)CC4(O)C[C@H](O)[C@@H](C(=O)O)[C@H](C3)O4)C2O)C1=O (stereo partly shown) [Compound N4, N—(N′-2,6-dimethyl-phenylsuccinimidyl)nystatin A1] |  |  | 16 | 8 | 8 | 6.32 | 8 | 16 |  |  | 
C[C@@H]1[C@H](O)[C@@H](C)/C=C/C=C/CC/C=C/C=C/C=C/C=C/[C@H](O[C@@H]2O[C@H](C)[C@@H](O)[C@H](NC(=O)[C@H](N)COC(C)(C)C)[C@@H]2O)C[C@@H]2O[C@](O)(C[C@@H](O)C[C@@H](O)[C@H](O)CC[C@@H](O)C[C@@H](O)CC(=O)O[C@H]1C)C[C@H](O)[C@H]2C(=O)O [Compound N38, N-D-(O-tert-butyl)serylnystatin A1] |  |  | 16 | 8 | 8 | 5.95 | 8 | 16 |  |  | 
C[C@@H]1[C@H](O)[C@@H](C)/C=C/C=C/CC/C=C/C=C/C=C/C=C/[C@H](O[C@@H]2O[C@H](C)[C@@H](O)[C@H](NC(=O)[C@@H](N)Cc3ccc([N+](=O)[O-])cc3)[C@@H]2O)C[C@@H]2O[C@](O)(C[C@@H](O)C[C@@H](O)[C@H](O)CC[C@@H](O)C[C@@H](O)CC(=O)O[C@H]1C)C[C@H](O)[C@H]2C(=O)O [Compound N40, N-L-(4-nitrophenyl)alanylnystatin A1] |  |  | 16 | 8 | 8 | 5.56 | 8 | 16 | >300 | 7.45 | >300
CCCN(CC1(O)OCC(O)C(O)C1O)C1C(O)C(C)OC(OC2C=CC=CC=CC=CCCC=CC=CC(C)C(O)C(C)C(C)OC(=O)CC(O)CC(O)CC(O)CCC(O)C(O)CC3(O)CC(O)C(C(=O)O)C(C2)O3)C1O (stereo not shown) [Compound N27, N-fructosyl-N-n-propylnystatin A1] | 7.34 | >300 |  |  |  |  |  |  |  |  | 
CC1OC(O[C@H]2/C=C/C=C/C=C/C=C/CC/C=C/C=C/[C@H](C)[C@@H](O)[C@@H](C)[C@H](C)OC(=O)C[C@H](O)C[C@H](O)C[C@H](O)CC[C@@H](O)[C@H](O)CC3(O)C[C@H](O)[C@@H](C(=O)O)[C@H](C2)O3)C(O)C(NC2CC(=O)N(c3ccc(Br)cc3)C2=O)C1O (stereo partly shown) [Compound N2, N—(N′-4-bromophenylsuccinimidyl)nystatin A1] |  |  | 16 | 8 | 8 | 4.99 | 8 | 16 |  |  | 
CNC(C)(C)C(=O)NC1C(O)C(C)OC(O[C@H]2/C=C/C=C/C=C/C=C/CC/C=C/C=C/[C@H](C)[C@@H](O)[C@@H](C)[C@H](C)OC(=O)C[C@H](O)C[C@H](O)C[C@H](O)CC[C@@H](O)[C@H](O)CC3(O)C[C@H](O)[C@@H](C(=O)O)[C@H](C2)O3)C1O (stereo partly shown) [Compound N43, N-[2-(N-methylamino)-2-methylpropan]nystatin A1] |  |  | 8 | 8 | 8 | 5.46 | 8 | 16 |  |  | 283.84
CC1OC(O[C@H]2/C=C/C=C/C=C/C=C/CC/C=C/C=C/[C@H](C)[C@@H](O)[C@@H](C)[C@H](C)OC(=O)C[C@H](O)C[C@H](O)C[C@H](O)CC[C@@H](O)[C@H](O)CC3(O)C[C@H](O)[C@@H](C(=O)O)[C@H](C2)O3)C(O)C(NC(=O)[C@@H](N)CCC(=O)OC(C)(C)C)C1O (stereo partly drawn) [Compound N35, N-L-(O-tert-butyl)glutamylnystatin A1] |  |  | 16 | 16 | 8 | 6.36 | 8 | 16 |  |  | 
CC1OC(O[C@H]2/C=C/C=C/C=C/C=C/CC/C=C/C=C/[C@H](C)[C@@H](O)[C@@H](C)[C@H](C)OC(=O)C[C@H](O)C[C@H](O)C[C@H](O)CC[C@@H](O)[C@H](O)CC3(O)C[C@H](O)[C@@H](C(=O)O)[C@H](C2)O3)C(O)C(NC(=O)[C@H](N)Cc2cccnc2)C1O (stereo partly drawn) [Compound N42, N-D-β-(pyridin-3-yl)alanylnystatin A1] |  |  | 32 | 16 | 8 | 10.54 | 16 | 32 |  |  | 
